# Patent EP0973746B1, “SUBSTITUTED 3-CYANO QUINOLINES” (Wyeth Holdings Corporation, priority 1997, dated 1998)
# pIC50: −log10 of the molar value.
# Key:
# [1] = target: epidermal growth factor receptor kinase (Homo sapiens, UniProt P00533); assay: biochemical
# Procedure: The enzyme was obtained as a membrane extract of A431 cells (American Type Culture Collection, Rockville, MD). A431 cells were grown in T175 flasks to 80% confluency. The cells were washed twice with phosphate buffered saline (PBS) without Ca^2+. Flasks were rotated for 1.5 hours in 20 ml PBS with 1.0 mM ethylenediaminetetraacetic acid (EDTA) at room temperature and centrifuged at 600g for 10 minutes. The cells were solubilized in 1 ml per 5 x 10^6 cells of cold lysis buffer {10mM 4-(2-hydroxyethyl)-1-piperazineethane-sulfonic acid (HEPES), pH 7.6, 10 mM NaCl, 2mM EDTA, 1mM phenylmethyl-sulfonyl-fluoride (PMSF), 10 mg/ml aprotinin, 10 mg/ml leupeptin, 0.1 mM sodium orthovanadate} in a Dounce homogenizer with 10 strokes on ice. The lysate was centrifuged at 600g for 10 minutes first to clear cell debris and the supernatant further centrifuged at 100,000 g for 30 min at 4°C. The membrane pellet was suspended in 1.5 ml HNG buffer (50 mM HEPES, pH 7.6, 125 mM NaCl, 10% glycerol). The membrane extract was divided into aliquots, immediately frozen in liquid nitrogen and stored at -70°C.
# Compounds to be evaluated were made into 10 mg/ml stock solutions in 100% dimethylsulfoxide (DMSO). Prior to experiment, stock solutions were diluted to 500 mM with buffer (30 mM Hepes pH 7.4) and then serially diluted to the desired concentration.
# An aliquot of the A431 membrane extract (10 mg/ml) was diluted in 30 mM HEPES (pH 7.4) to give a protein concentration of 50 ug/ml. […] To this was added the ^33p-ATP (10 mCi/ml) diluted 1:10 in assay buffer along with the substrate peptide at a concentration of 0.5 mM (control reactions get no test compound) and the reaction was allowed to proceed for 30 min at 30°C. The reaction was stopped with 10% TCA and left on ice for at least 10 min after which tubes were microcentrifuged at full speed for 15 min. The a portion of the supernatants were spotted on P81 phosphocellulose discs and washed twice in 1% acetic acid then water for 5 min each followed by scintillation counting. […] The % inhibition of the test compound was determined for at least three different concentrations and the IC50 value was evaluated from the dose response curve. […] CPM(control) is in units of counts per minute and was a number expressing the amount of radiolabeled ATP (g-^33P) incorporated into the RR-SRC peptide substrate by the enzyme after 30 minutes at 30°C in the absence of test compound as measured by liquid scintillation counting. The CPM values were corrected for the background counts produced by ATP in the absence of the enzymatic reaction. The IC50 values reported in TABLE 1 are averages of the number of tests conducted.
# [2] = target: recombinant human MEK 1 (MAPKK) and recombinant human ERK2 (MAPK); assay: Mitogen Activated Protein Kinase (MAPK) assay, two component coupled MEK 1 / ERK2; format: biochemical; details: separate entries for the same compound = evaluated more than one time;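 note: MEK 1-activated ERK2 phosphorylates MBP or Myc peptide with 33P-ATP, filter capture and scintillation counting, inhibitor preincubated with ERK2 30 min at 0 °C, inhibition relative to uninhibited control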
# SW620 = assay: Inhibition of cancer cell growth as measured by cell number, SW620; format: cell-based, human; details: Homo sapiens, SW-620, 48 h, read-out: IC50 SW620;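 note: SW620 was included as a cell line with little or no EGFR or HER2/neu expression, in contrast to receptor-overexpressing lines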
# Source text: (§1) The cell lines were chosen since they overexpressed epidermal growth factor receptor (EGFR) (i.e. A431) or HER2/neu (SKBR3), or had little to no expression of the these receptors (SW620, LOX, MCF7).
# A431 = assay: Inhibition of cancer cell growth as measured by cell number, A431; format: cell-based, human; details: Homo sapiens, A-431, 48 h, read-out: IC50 A431;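 note: human A431 line, picked because it overexpresses epidermal growth factor receptor (EGFR)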
# Source text: as §1
# [3] = target: Epithelial Cell Kinase (ECK) (Homo sapiens, UniProt P29317); assay: biochemical
# Chain of Epithelial Cell Kinase (ECK) (P29317 24-976, species assumed): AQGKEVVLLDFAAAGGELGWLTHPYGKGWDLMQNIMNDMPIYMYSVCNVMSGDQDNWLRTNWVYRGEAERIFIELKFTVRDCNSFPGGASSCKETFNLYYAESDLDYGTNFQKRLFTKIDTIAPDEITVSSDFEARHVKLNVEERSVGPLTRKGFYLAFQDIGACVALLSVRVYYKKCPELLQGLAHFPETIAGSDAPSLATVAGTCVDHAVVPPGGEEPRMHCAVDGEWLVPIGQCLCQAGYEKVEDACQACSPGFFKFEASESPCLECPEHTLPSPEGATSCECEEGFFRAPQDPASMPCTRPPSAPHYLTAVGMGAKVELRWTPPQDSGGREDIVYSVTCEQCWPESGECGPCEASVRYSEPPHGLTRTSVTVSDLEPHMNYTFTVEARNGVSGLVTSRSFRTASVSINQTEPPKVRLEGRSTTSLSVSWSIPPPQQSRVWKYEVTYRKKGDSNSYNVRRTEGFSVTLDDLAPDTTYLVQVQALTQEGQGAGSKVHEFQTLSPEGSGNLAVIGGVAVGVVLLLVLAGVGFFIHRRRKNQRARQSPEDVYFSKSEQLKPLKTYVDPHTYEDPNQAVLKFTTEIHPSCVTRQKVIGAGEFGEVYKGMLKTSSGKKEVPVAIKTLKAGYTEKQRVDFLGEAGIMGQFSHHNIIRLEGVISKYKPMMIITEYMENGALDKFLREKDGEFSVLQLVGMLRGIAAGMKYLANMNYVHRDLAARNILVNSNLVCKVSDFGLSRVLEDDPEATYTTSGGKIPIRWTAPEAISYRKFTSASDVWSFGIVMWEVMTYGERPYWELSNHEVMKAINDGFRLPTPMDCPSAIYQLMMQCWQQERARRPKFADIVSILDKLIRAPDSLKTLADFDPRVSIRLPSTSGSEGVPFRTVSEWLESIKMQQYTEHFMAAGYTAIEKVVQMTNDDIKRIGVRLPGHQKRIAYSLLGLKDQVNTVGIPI
# Procedure: In this standard pharmacological test procedure, a biotinylated peptide substrate is first immobilized on neutravidin-coated microtiter plates. The test drug, the Epithelial Cell Kinase (ECK), Mg^++, sodium vanadate (a protein tyrosine phosphatase inhibitor), and an appropriate buffer to maintain pH (7.2) are then added to the immobilized substrate-containing microtiter wells. ATP is then added to initiate phosphorylation. After incubation, the assay plates are washed with a suitable buffer leaving behind phosphorylated peptide which is exposed to horse radish peroxidase (HRP)-conjugated anti-phosphotyrosine monoclonal antibody. The antibody-treated plates are washed again and the HRP activity in individual wells is quantified as a reflection of degree of substrate phosphorylation.
# [4] = target: T1, Kinase insert Domain containing Receptor (KDR: the catalytic domain of the VEGF receptor) (Homo sapiens, UniProt P35968); assay: Inhibition of Kinase insert Domain containing Receptor (KDR); format: biochemical; details: pH 7.2; radioactive format; read-out: KDR IC50 (converted);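 note: KDR phosphorylating a Glu:Tyr 4:1 copolymer with P32- or P33-labelled ATP, Mg++ and vanadate, read as acid-insoluble radiolabel, compared with compound-free reaction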
# T1 construct: KDR: the catalytic domain of the VEGF receptor
# T1 sequence (P35968 834-1162 limits assumed): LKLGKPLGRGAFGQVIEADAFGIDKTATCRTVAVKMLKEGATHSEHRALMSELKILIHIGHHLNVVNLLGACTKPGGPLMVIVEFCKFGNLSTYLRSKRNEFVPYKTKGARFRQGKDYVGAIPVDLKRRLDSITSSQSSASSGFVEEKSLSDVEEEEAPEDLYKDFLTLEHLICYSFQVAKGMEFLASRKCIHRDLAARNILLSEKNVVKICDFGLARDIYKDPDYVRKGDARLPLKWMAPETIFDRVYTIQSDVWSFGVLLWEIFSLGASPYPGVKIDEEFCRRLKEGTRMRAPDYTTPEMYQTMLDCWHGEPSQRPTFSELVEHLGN
# SKBR3 = assay: Inhibition of cancer cell growth as measured by cell number, SKBR3; format: cell-based, human; details: Homo sapiens, SK-BR-3, 48 h, read-out: IC50 SKBR3;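 note: SK-BR-3 cells were selected as a line overexpressing HER2/neu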
# Source text: as §1
# [5] = target: T2, His-tagged cytoplasmic domain of EGFR (Homo sapiens, UniProt P00533); assay: Inhibition of Epidermal Growth Factor Receptor Kinase (EGF-R) using recombinant enzyme; format: biochemical; details: recombinant enzyme; RR-SRC peptide; average of the number of tests; read-out: IC50;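 note: radiometric kinase assay measuring radiolabeled phosphate transfer from ATP onto the peptide tyrosine by scintillation counting, control is reaction without compound, background subtracted, IC50 from dose-response curve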
# T2 construct: containing the EGFR cDNA encoding amino acids 645 - 1186 preceded by Met-Ala-(His)6; made in house; host or cells: Sf9 cells, recombinant baculovirus vHcEGFR52
# T2 sequence (P00533 669-1210): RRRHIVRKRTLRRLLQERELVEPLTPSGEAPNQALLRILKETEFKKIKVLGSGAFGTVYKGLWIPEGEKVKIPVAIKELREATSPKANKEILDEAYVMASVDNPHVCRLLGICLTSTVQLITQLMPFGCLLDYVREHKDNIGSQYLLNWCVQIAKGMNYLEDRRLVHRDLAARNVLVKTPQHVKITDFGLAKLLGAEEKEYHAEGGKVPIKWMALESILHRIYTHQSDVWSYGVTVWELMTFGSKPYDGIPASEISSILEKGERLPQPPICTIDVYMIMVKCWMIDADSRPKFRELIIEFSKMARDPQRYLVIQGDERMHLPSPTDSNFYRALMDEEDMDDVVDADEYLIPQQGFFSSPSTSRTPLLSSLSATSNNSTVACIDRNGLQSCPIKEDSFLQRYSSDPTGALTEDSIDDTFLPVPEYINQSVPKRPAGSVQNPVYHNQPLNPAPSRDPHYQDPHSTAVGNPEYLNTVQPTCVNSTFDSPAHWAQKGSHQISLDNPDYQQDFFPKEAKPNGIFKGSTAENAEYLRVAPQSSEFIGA
# Procedure: The enzyme used in this assay is the His-tagged cytoplasmic domain of EGFR.
# Compounds to be evaluated were made into 10 mg/mL stock solutions in 100% dimethylsulfoxide (DMSO). Prior to experiment, stock solutions were diluted to 500 µM with 100% DMSO and then serially diluted to the desired concentration with HEPES buffer (30 mM HEPES pH 7.4).
# For the enzyme reaction, 10 µL of each inhibitor (at various concentrations) were added to each well of a 96-well plate. […] This was allowed to sit for 10 min on ice and was followed by the addition of 5 µl peptide (80 µM final conc.), 10µl of 4X Buffer (Table A), 0.25 µL ^33P-ATP and 12 µL H2O. The reaction was allowed to run for 90 min at room temperature and was followed by spotting the entire volume on to precut P81 filter papers. The filter discs were washed 2X with 0.5% phosphoric acid and radioactivity was measured using a liquid scintillation counter.
# The % inhibition of the test compound was determined for at least three different concentrations and the IC50 value was evaluated from the dose response curve. […] CPM(control) is in units of counts per minute and was a number expressing the amount of radiolabeled ATP (g-33P) incorporated into the RR-SRC peptide substrate by the enzyme after 90 minutes at room temperature in the absence of test compound as measured by liquid scintillation counting. The CPM values were corrected for the background counts produced by ATP in the absence of the enzymatic reaction. The IC50 values reported in TABLE 2 are averages of the number of tests conducted.
# Chain of epidermal growth factor receptor kinase (P00533 25-1210): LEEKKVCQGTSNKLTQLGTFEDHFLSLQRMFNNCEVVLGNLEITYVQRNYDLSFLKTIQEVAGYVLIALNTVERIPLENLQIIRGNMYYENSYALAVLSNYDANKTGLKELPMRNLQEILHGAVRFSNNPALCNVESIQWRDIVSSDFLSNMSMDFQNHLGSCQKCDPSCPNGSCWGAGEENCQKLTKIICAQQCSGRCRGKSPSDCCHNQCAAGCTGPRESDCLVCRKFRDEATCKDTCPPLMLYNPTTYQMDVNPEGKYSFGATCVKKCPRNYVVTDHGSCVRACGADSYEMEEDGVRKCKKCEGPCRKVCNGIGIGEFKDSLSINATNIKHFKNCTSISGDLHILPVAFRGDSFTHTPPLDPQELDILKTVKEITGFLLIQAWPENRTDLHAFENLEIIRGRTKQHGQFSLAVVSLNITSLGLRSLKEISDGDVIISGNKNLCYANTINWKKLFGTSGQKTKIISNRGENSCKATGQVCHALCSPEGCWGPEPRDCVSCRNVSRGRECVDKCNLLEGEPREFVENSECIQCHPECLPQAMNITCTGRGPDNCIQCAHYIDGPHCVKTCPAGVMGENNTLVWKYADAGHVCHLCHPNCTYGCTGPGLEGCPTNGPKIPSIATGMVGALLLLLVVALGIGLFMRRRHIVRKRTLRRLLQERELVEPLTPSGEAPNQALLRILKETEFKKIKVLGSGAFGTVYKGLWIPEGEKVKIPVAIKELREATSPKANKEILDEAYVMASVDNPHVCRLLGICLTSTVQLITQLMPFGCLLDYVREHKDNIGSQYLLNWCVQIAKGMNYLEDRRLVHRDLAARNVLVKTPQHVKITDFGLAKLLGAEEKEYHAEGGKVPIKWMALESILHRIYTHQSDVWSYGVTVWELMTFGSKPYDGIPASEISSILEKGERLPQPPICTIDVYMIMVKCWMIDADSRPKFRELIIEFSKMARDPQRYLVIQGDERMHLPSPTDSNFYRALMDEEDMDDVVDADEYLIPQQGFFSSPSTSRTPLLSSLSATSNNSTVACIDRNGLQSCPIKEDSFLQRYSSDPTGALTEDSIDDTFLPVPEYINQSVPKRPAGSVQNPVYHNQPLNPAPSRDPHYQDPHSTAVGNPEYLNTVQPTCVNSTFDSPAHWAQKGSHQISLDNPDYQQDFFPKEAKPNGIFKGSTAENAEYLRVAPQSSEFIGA
SMILES,pIC50 [1],pIC50 [2],pIC50 [3],IC50 [4] [nM],other results
"C=C(C)C(=O)Nc1ccc2ncc(C#N)c(Nc3cccc(Br)c3)c2c1 [Example 53, N-[4-[(3-Bromophenyl)amino]-3-cyano-6-quinolinyl]-2-methyl-2-propenamide]",8.15,–,–,–,–
"C=CC(=O)Nc1ccc2ncc(C#N)c(Nc3ccc(Br)c(Br)c3)c2c1 [Example 54, N-[4-[(3,4-Dibromophenyl)amino]-3-cyano-6-quinolinyl]-2-propenamide]",8.15,–,–,–,–
"N#Cc1cnc2ccc(NC(=O)C#CCO)cc2c1Nc1cccc(Br)c1 [Example 57, N-[4-[(3-Bromophenyl)amino]-3-cyano-6-quinolinyl]-4-hydroxy-2-butynamide]",8.10,–,–,–,–
"N#Cc1cnc2ccc(NC(=O)C#CCN3CCOCC3)cc2c1Nc1cccc(Br)c1 [Example 58, N-[4-[(3-Bromophenyl)amino]-3-cyano-6-quinoliny]-4-morpholino-2-butynamide]",8.70,–,–,–,–
"CN(C)CC#CC(=O)Nc1ccc2ncc(C#N)c(Nc3cccc(Br)c3)c2c1 [Example 59, N-[4-[(3-Bromophenyl)amino]-3-cyano-6-quinolinyl]-4-dimethylamino-2-butynamide]",10.00,–,–,–,–
CN(C)CC=CC(=O)Nc1ccc2ncc(C#N)c(Nc3ccc(F)c(Cl)c3)c2c1 [Example 145],–,4.46,< 4.33,> 70800,IC50 (SW620): 0.4 µg/mL; IC50 (A431): 0.03 µg/mL; IC50 (SKBR3): 0.03 µg/mL; pIC50 [5]: 7.22
"COc1cc2ncc(C#N)c(Nc3cccc(SC)c3)c2cc1OC [Example 294, 6,7-Dimethoxy-4-(3-methylsulfanyl-phenylamino)-quinoline-3-carbonitrile]",–,5.05,8.70,17100,–
"COc1cc2ncc(C#N)c(Nc3cc(O)c(Cl)cc3F)c2cc1OC [Example 319, 4-(4-Chloro-2-fluoro-5-hydroxy-phenylamino)-6,7-dimethoxy-quinoline-3-carbonitrile]",–,> 6.00,9.00,1340,–
